In patent US20090069370A1, “AZACYCLYLISOQUINOLINONE AND ISOINDOLINONE DERIVATIVES AS HISTAMINE-3 ANTAGONISTS” (Wyeth, priority 2007, published 2009) one finds Ki data, which are given here for 27 compounds.

T1 sequence (Q9Y5N1 whole entry): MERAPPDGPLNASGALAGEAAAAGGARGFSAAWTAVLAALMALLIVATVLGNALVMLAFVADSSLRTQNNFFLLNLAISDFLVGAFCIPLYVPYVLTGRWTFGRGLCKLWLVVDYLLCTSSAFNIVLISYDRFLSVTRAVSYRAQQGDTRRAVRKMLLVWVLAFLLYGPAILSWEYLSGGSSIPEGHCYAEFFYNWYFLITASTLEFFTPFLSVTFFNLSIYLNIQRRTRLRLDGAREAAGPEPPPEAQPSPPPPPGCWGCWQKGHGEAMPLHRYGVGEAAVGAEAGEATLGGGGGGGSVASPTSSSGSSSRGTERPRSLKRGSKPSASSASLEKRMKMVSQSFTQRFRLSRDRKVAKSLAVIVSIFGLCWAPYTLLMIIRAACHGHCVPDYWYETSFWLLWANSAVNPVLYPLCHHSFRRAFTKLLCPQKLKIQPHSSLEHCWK

The experiment addresses T1, Human Histamine H3 Receptor (Homo sapiens, UniProt Q9Y5N1).
T1 construct: expressed in transfected cells; host or cells: HEK293T cells, stably transfected; membrane preparation
Description: Methyl histamine binding in human histamine H3 receptor cell line. The settings on record: membranes of stably transfected HEK293T cells; radioligand 1 nM; Ki from IC50 by Cheng-Prusoff. On the procedure: Evaluation of Methyl Histamine Binding in Human Histamine H3 Receptor Cell Line
The affinity of test compounds for the histamine 3 (H3) receptor is evaluated in the following manner. Stably transfected HEK293T cells are grown in DMEM containing 10% heat inactivated FBS and G-418 (500 ug/ml). Cells are scraped from the plate, transferred to centrifuge tubes, washed one time in PBS by centrifugation in a Sorvall RT7 Plus centrifuge (2000 rpm 10 minutes, 4° C.). The resulting pellets are stored at −80° C. until ready for use. Cells are re-suspended in buffer (50 mM Tris pH=7.5) and placed in a Dounce homogenizer, douncing ten times to homogenize cells. The homogenate is spun down by centrifugation (Sorvall RT7 Plus, 1800 rpm 10 minutes, 4° C.). The supernatant is placed in a Corex tube and spun down by centrifugation (Sorvall RC 5c Plus, 17,000 rpm 20 minutes, 4° C.). The pellet is resuspended in buffer (50 mM Tris, pH 7.5). Protein concentration (ug/ul) is determined using the Micro-BCA Protein Determination. The binding assay is set up in a 96 well microtiter plate in a total volume of 250 uL. Non-specific binding is determined in the presence of 10 uM clobenpropit. The final radioligand concentration is 1 nM. The test compound is serially diluted using the Beckman Biomek2000 to a final approximate range of 100 uM to 100 pM. Membranes are suspended in buffer, homogenized in 2 bursts of ten seconds using a Vitris mechanical homogenizer set at power setting 5. Ten μg of membranes are added to each well. Following a one hour incubation at 30° C., the reaction is terminated by the addition of ice cold buffer and rapid filtration with a Packard Filtermate Harvester through a GF/B filter pre-soaked with 1% PEI for one hour. The plate is dried for one hour at 37° C. and 60 μL Microscint Scintillant is added to each well. The CPM per well is measured on a Packard Top Count NXT. Ki values are determined in nM. The Ki is calculated from the IC50 (i.e. the concentration of competing ligand which displaces 50% of the specific binding of the radioligand). CPM values are expressed as % specific binding and plotted vs compound concentration. A curve is fitted using a four-parameter logistic fit and the IC50 value is determined. The Ki is calculated from this using the Cheng-Prusoff equation: […]=IC50/1+(L/Kd) where L=concentration of free radioligand used in the assay, and Kd is the dissociation constant of the radioligand for the receptor. L is determined for each experiment by counting an aliquot of the diluted radioligand (corresponding to that added to each well) and the Kd has previously been determined under identical conditions for this cell line/radioligand.
A word on the Ki: it is a measure of affinity in units of concentration, obtained from inhibition or displacement. A higher Ki goes with a looser hold on the target. In turn, `N#Cc1ccc(-c2ccc3c(c2)CN(C2CCN(C4CCCC4)CC2)C3=O)cc1` [Example 29, 4-[2-(1-Cyclopentylpiperidin-4-yl)-1-oxo-2,3-dihydro-1H-isoindol-5-yl]benzonitrile] showed a Ki of 10.1 to 25 nM.

With `N#Cc1ccc(-c2ccc3c(c2)CN(C2CCN(C4CCCCC4)CC2)C3=O)cc1` [Example 30, 4-[2-(1-Cyclohexylpiperidin-4-yl)-1-oxo-2,3-dihydro-1H-isoindol-5-yl]benzonitrile], the Ki lay in the range of 25.1 to 50 nM.

As to `O=C(O)c1ccc(Oc2ccc3c(c2)CCN([C@@H]2CCN(C4CCC4)C2)C3=O)cc1` [Example 32, (R)-4-(2-(1-cyclobutylpyrrolidin-3-yl)-1-oxo-1,2,3,4-tetrahydroiso-quinolin-6-yloxy)benzoic acid], the Ki is > 100 nM.

On to `CNC(=O)c1ccc(Oc2ccc3c(c2)CCN([C@@H]2CCN(C4CCC4)C2)C3=O)cc1` [Example 33, 4-({2-[(3R)-1-cyclobutylpyrrolidin-3-yl]-1-oxo-1,2,3,4-tetrahydroisoquinolin-6-yl}oxy)-N-methylbenzamide], for which the Ki was ≤ 10 nM.

As to `CCNC(=O)c1ccc(Oc2ccc3c(c2)CCN([C@@H]2CCN(C4CCC4)C2)C3=O)cc1` [Example 34, 4-({2-[(3R)-1-cyclobutylpyrrolidin-3-yl]-1-oxo-1,2,3,4-tetrahydroisoquinolin-6-yl}oxy)-N-ethylbenzamide], the Ki is ≤ 10 nM.

Regarding `O=C(c1ccc(Oc2ccc3c(c2)CCN([C@@H]2CCN(C4CCC4)C2)C3=O)cc1)N1CCCC1` [Example 35, 2-[(3R)-1-cyclobutylpyrrolidin-3-yl]-6-[4-(pyrrolidin-1-ylcarbonyl)phenoxy]-3,4-dihydroisoquinolin-1(2H)-one], the Ki lay in the range of 10.1 to 25 nM.

As for `CNC(=O)c1ccc(Oc2ccc3c(c2)CCN([C@@H]2CCN(C4CCCC4)C2)C3=O)cc1` [Example 37, 4-({2-[(3R)-1-cyclopentylpyrrolidin-3-yl]-1-oxo-1,2,3,4-tetrahydroisoquinolin-6-yl}oxy)-N-methylbenzamide], the Ki was ≤ 10 nM.

Take `CCNC(=O)c1ccc(Oc2ccc3c(c2)CCN([C@@H]2CCN(C4CCCC4)C2)C3=O)cc1` [Example 38, 4-({2-[(3R)-1-cyclopentylpyrrolidin-3-yl]-1-oxo-1,2,3,4-tetrahydroisoquinolin-6-yl}oxy)-N-ethylbenzamide]: the Ki was 10.1 to 25 nM.

As for `O=C(c1ccc(Oc2ccc3c(c2)CCN([C@@H]2CCN(C4CCCC4)C2)C3=O)cc1)N1CCCC1` [Example 39, 2-[(3R)-1-cyclopentylpyrrolidin-3-yl]-6-[4-(pyrrolidin-1-ylcarbonyl)phenoxy]-3,4-dihydroisoquinolin-1(2H)-one], the Ki was ≤ 10 nM.

For the compound `CNC(=O)c1ccc(-c2ccc3c(c2)CCN([C@@H]2CCN(C4CCCC4)C2)C3=O)cc1` [Example 41, 4-{2-[(3R)-1-cyclopentylpyrrolidin-3-yl]-1-oxo-1,2,3,4-tetrahydroisoquinolin-6-yl}-N-methylbenzamide], the inhibitory constant (Ki) is ≤ 10 nM.

`CCNC(=O)c1ccc(-c2ccc3c(c2)CCN([C@@H]2CCN(C4CCCC4)C2)C3=O)cc1` [Example 42, 4-{2-[(3R)-1-cyclopentylpyrrolidin-3-yl]-1-oxo-1,2,3,4-tetrahydroisoquinolin-6-yl}-N-ethylbenzamide]: the Ki was ≤ 10 nM.

Regarding `O=C(c1ccc(-c2ccc3c(c2)CCN([C@@H]2CCN(C4CCCC4)C2)C3=O)cc1)N1CCCC1` [Example 43, 2-[(3R)-1-cyclopentylpyrrolidin-3-yl]-6-[4-(pyrrolidin-1-ylcarbonyl)phenyl]-3,4-dihydroisoquinolin-1(2H)-one], the inhibition constant (Ki) was ≤ 10 nM.

Regarding `CNC(=O)c1ccc(-c2ccc3c(c2)CCN([C@@H]2CCN(C4CCC4)C2)C3=O)cc1` [Example 44, 4-{2-[(3R)-1-cyclobutylpyrrolidin-3-yl]-1-oxo-1,2,3,4-tetrahydroisoquinolin-6-yl}-N-methylbenzamide], the Ki is ≤ 10 nM.

In the case of `CCNC(=O)c1ccc(-c2ccc3c(c2)CCN([C@@H]2CCN(C4CCC4)C2)C3=O)cc1` [Example 45, 4-{2-[(3R)-1-cyclobutylpyrrolidin-3-yl]-1-oxo-1,2,3,4-tetrahydroisoquinolin-6-yl}-N-ethylbenzamide], the inhibitory constant (Ki) was ≤ 10 nM.

In the case of `CN(C)C(=O)c1ccc(-c2ccc3c(c2)CCN([C@@H]2CCN(C4CCC4)C2)C3=O)cc1` [Example 46, 4-{2-[(3R)-1-cyclobutylpyrrolidin-3-yl]-1-oxo-1,2,3,4-tetrahydroisoquinolin-6-yl}-N,N-dimethylbenzamide], the inhibition constant (Ki) was ≤ 10 nM.

On to `O=C(c1ccc(-c2ccc3c(c2)CCN([C@@H]2CCN(C4CCC4)C2)C3=O)cc1)N1CCCC1` [Example 47, 2-[(3R)-1-cyclobutylpyrrolidin-3-yl]-6-[4-(pyrrolidin-1-ylcarbonyl)phenyl]-3,4-dihydroisoquinolin-1(2H)-one], for which the inhibition constant Ki is ≤ 10 nM.

With `O=C(c1ccc(-c2ccc3c(c2)CCN([C@@H]2CCN(C4CCC4)C2)C3=O)cc1F)N1CCCC1` [Example 48, 2-[(3R)-1-cyclobutylpyrrolidin-3-yl]-6-[3-fluoro-4-(pyrrolidin-1-ylcarbonyl)phenyl]-3,4-dihydroisoquinolin-1(2H)-one], the inhibition constant (Ki) is ≤ 10 nM.

Regarding `O=C(c1ccc(-c2ccc3c(c2)CCN([C@@H]2CCN(C4CCC4)C2)C3=O)cc1Cl)N1CCCC1` [Example 49, 6-[3-chloro-4-(pyrrolidin-1-ylcarbonyl)phenyl]-2-[(3R)-1-cyclobutylpyrrolidin-3-yl]-3,4-dihydroisoquinolin-1(2H)-one], the Ki was ≤ 10 nM.

In turn, `CN1CC[C@@H](N2CCc3cc(-c4ccc(C(=O)N5CCCC5)cc4)ccc3C2=O)C1` [Example 55, 2-[(3R)-1-methylpyrrolidin-3-yl]-6-[4-(pyrrolidin-1-ylcarbonyl)phenyl]-3,4-dihydroisoquinolin-1(2H)-one] gave a Ki of 50.1 to 100 nM.

Turning to `CC(C)N1CC[C@@H](N2CCc3cc(-c4ccc(C(=O)N5CCCC5)cc4)ccc3C2=O)C1` [Example 56, 2-[(3R)-1-(1-methylethyl)pyrrolidin-3-yl]-6-[4-(pyrrolidin-1-ylcarbonyl)phenyl]-3,4-dihydroisoquinolin-1(2H)-one], the Ki was ≤ 10 nM.

For the compound `O=C(c1ccc(-c2ccc3c(c2)CCN([C@@H]2CCN(C4CCCCC4)C2)C3=O)cc1)N1CCCC1` [Example 57, 2-[(3R)-1-cyclohexylpyrrolidin-3-yl]-6-[4-(pyrrolidin-1-ylcarbonyl)phenyl]-3,4-dihydroisoquinolin-1(2H)-one], the inhibition constant (Ki) was ≤ 10 nM.

`O=C(c1ccc(-c2ccc3c(c2)CCN([C@@H]2CCN(CC4CC4)C2)C3=O)cc1)N1CCCC1` [Example 58, 2-[(3R)-1-(cyclopropylmethyl)pyrrolidin-3-yl]-6-[4-(pyrrolidin-1-ylcarbonyl)phenyl]-3,4-dihydroisoquinolin-1(2H)-one]: the Ki is ≤ 10 nM.

The compound `O=C(c1ccc(-c2ccc3c(c2)CCN([C@@H]2CCN(CC4CCCC4)C2)C3=O)cc1)N1CCCC1` [Example 59, 2-[(3R)-1-(cyclopentylmethyl)pyrrolidin-3-yl]-6-[4-(pyrrolidin-1-ylcarbonyl)phenyl]-3,4-dihydroisoquinolin-1(2H)-one] returned an inhibitory constant (Ki) of 10.1 to 25 nM.

For `O=C(c1ccc(-c2ccc3c(c2)CCN([C@@H]2CCN(Cc4ccoc4)C2)C3=O)cc1)N1CCCC1` [Example 60, 2-[(3R)-1-(furan-3-ylmethyl)pyrrolidin-3-yl]-6-[4-(pyrrolidin-1-ylcarbonyl)phenyl]-3,4-dihydroisoquinolin-1(2H)-one], the inhibition constant (Ki) is ≤ 10 nM.

Regarding `O=C(c1ccc(-c2ccc3c(c2)CCN([C@@H]2CCN(Cc4ccco4)C2)C3=O)cc1)N1CCCC1` [Example 61, 2-[(3R)-1-(furan-2-ylmethyl)pyrrolidin-3-yl]-6-[4-(pyrrolidin-1-ylcarbonyl)phenyl]-3,4-dihydroisoquinolin-1(2H)-one], the inhibitory constant (Ki) was > 100 nM.

In turn, `O=C(c1ccc(-c2ccc3c(c2)CCN([C@@H]2CCN(Cc4cccs4)C2)C3=O)cc1)N1CCCC1` [Example 62, 6-[4-(pyrrolidin-1-ylcarbonyl)phenyl]-2-[(3R)-1-(thiophen-2-ylmethyl)pyrrolidin-3-yl]-3,4-dihydroisoquinolin-1(2H)-one] gave a Ki of 25.1 to 50 nM.

As to `O=C(c1ccc(-c2ccc3c(c2)CCN(C2CCN(C4CCC4)CC2)C3=O)cc1)N1CCCC1` [Example 65, 2-(1-cyclobutylpiperidin-4-yl)-6-[4-(pyrrolidin-1-ylcarbonyl)phenyl]-3,4-dihydroisoquinolin-1(2H)-one], the inhibitory constant (Ki) is ≤ 10 nM.
